Assay: Cabotegravir population pharmacokinetic (PopPK) model
Set-up: species or system human
Protocol: A cabotegravir population pharmacokinetic (PopPK) model was built based on PK data following cabotegravir (CAB) 200 mg/mL intramuscular (IM) injections collected in 16 historical studies (Population pharmacokinetics of cabotegravir following administration of oral tablet and long-acting intramuscular injection in adult HIV-1-infected and uninfected subjects. Han K, Baker M, Lovern M, Paul P, Xiong Y, Patel P, Moore K P, Seal C S, Cutrell A G, D'Amico R D, Benn P D, Landovitz R J, Marzinke M A, Spreen W R, Ford S L. Br J Clin Pharmacol. 2022 October; 88(10):4607-4622. doi: 10.1111/bcp.15439. Epub 2022 Jul. 4. PMID: 35695476) and updated based on PK data from 19 studies: LAI116585, LAI117010, LAI117011, LAI117020, 201741, 201479, 201480, 205696, LAI116482 (LATTE), LAI115428, LAI116815, 200056 (LATTE-2), 201120 (ECLAIR), 201103 (HPTN077), 201584 (FLAIR), 201585 (ATLAS), 207966 (ATLAS-2M), 201738 (HPTN 083) and 201739 (HPTN 084). A total of 34,850 CAB plasma concentrations collected at various time points from 2,694 participants were used to build this PopPK model. […] The simulations were performed as follows: covariates including body weight, BMI and smoking status were resampled 5000 times from the distribution of these covariates for males and females, generating 5000 virtual male subjects and 5000 virtual female subjects. Individual PK parameters of the virtual subjects were calculated using subject-specific covariates and using the population parameter estimates, subject-specific NONMEM inter-individual errors (ETAs) sampled from the distributions that are decided by the estimated variance-covariate matrix of between-subject variability from the final population PK model. Concentration-versus-time profiles of the virtual subjects were calculated using the individual PK parameters. Residual variability (EPS) was included in the simulation. Median and 10th and 90th percentiles (80% prediction interval) of the simulated concentration-versus-time profiles of the virtual males and females were calculated. […]

Compound: C[C@H]1CO[C@@H]2Cn3cc(C(=O)NCc4ccc(F)cc4F)c(=O)c(O)c3C(=O)N12 [cabotegravir, (3S,11aR)—N-((2,4-difluorophenyl)methyl)-6-hydroxy-3-methyl-5,7-dioxo-2,3,5,11,11a-hexahydro(1,3)oxazolo(3,2-a)pyrido(1,2-d)pyrazine-8-carboxamide]
- KA2 in relation to BMI: decreased with increasing BMI
- KA2 in relation to needle length: lower with longer needle length
- Long-acting intramuscular gluteal absorption rate constant (KA2), lower in people assigned female at birth than people assigned male at birth (CAB 200 mg/mL IM injections): 46.5%
